How the values were obtained:
Aβ mechanoreceptors = conditions: animals treated as adults with imatinib
C-fiber nociceptors = test: In vitro skin nerve preparation: noxious heat response of CMH fibers from treated mice; type: in vivo
Procedure: The conduction velocity cut-off between Aβ and Aδ fibers was determined to be 9 m/s in c-Kit mutants based on measurements of the Aβ and Aδ wave in compound action potential recordings as previously described (Koltzenburg et al., 1997).

c-Kit = test: Paw withdrawal test (radiant heat); type: in vivo, mice
Procedure: Paw withdrawal test. In the radiant paw-withdrawal test the mice were placed in a Plexiglas chamber (15 cm diameter, 22.5 cm in height). The stimulus was a high intensity beam directed at the plantar surface of the hindpaw; movement of the paw away from the beam results in the heat source being terminated, with the withdrawal latency indicated on a digital screen (Ugo Basile, Milan, Italy). Paw withdrawal latencies were determined alternately from both hindpaws (stimuli given every 30- 40 s). Criteria for inclusion of a data point were calm behavior of the mouse just prior to testing, and a clear paw withdrawal from the hot beam associated with paw flicking and grooming. Baseline values were taken once a day at the same time for a period of 3 days. c-Kit ligand (Stem Cell Factor, SCF, R&D Systems) was injected once intraperitoneally (1 mg/kg i.p.) into TRPV1 -l- and control C57B1/6 mice (adult females, 6- 8 weeks, 20-25 g body weight), and response latencies to radiant heating of the hind paw was measured at various times after injection as described.
The inventors therefore used the mast cell degranulating agent 48/80 to deplete resident mast cells of neuroactive substances prior to the administration of SCF.

SMILES: Cc1ccc(NC(=O)c2ccc(CN3CCN(C)CC3)cc2)cc1Nc1nccc(-c2cccnc2)n1 [imatinib, 4-[(4-Methyl-1-piperazinyl)methyl]-N-[4-methyl-3-[[4-(3-pyridinyl)-2-pyrimidinyl]amino]-phenyl]benzamide]
- proportion of RAM and SAM receptors (Aβ mechanoreceptors): no change in proportion of RAM and SAM receptors
- C-fiber heat sensitivity (C-fiber nociceptors; imatinib 0.1 mg/g sub-cutaneously for 6-7 days): reduction in C-fiber heat sensitivity that was almost identical to that found in c-Kit^-/- and c-Kit^+/- mice
- number of spikes per 1 second time window during the heat ramp (CMH fibers), curve versus control (C-fiber nociceptors; imatinib treated adult mice, heat ramp 32°C to 60°C, Two way ANOVA F=7.67 p<0.01): significantly different from control
- fibers with responses >60 spikes/stimulus (high responders) (C-fiber nociceptors; imatinib treated mice, figure stated together with c-kit mutant mice, control C-fibers 47%): ~16%
- foot withdrawal latency to noxious heat (c-Kit; 5 days after daily imatinib treatment, 0.1 mg/g sub-cutaneously, n=6, vehicle treated mice 129 ±35%): 160 ±39 % of starting values
- thermal hyperalgesia after SCF in pre-treated mice (c-Kit; two subcutaneous injections (0.1 mg/g) 18 hrs and 1 hr before SCF (1 µg/g, i.p.)): did not display any significant thermal hyperalgesia

— EP2068152A1, “c-Kit as a novel target for the treatment of pain” (Max-Delbrück-Centrum für Molekulare Medizin (MDC), priority 2007, dated 2009)
